Three compounds from article PMC11689655, “High-throughput screening of dual-target inhibitors for SARS-CoV-2 main protease and papain-like protease from Chebulae Fructus: in silico prediction and experimental verification” (Frontiers in Microbiology, 2024) can be followed below.

The subject of one series is SARS-CoV-2 wild-type. In words: Antiviral activity (CPE inhibition) in Vero E6 cells, wild-type. The note with it: read-out: EC50 against SARS-CoV-2 wild-type strain. In kind it is cell-based.
Series [1] is described as follows: Cytotoxicity by CCK8 assay. The note with it: African green monkey. (In general: Tetrazolium dyes change colour on reduction, which living cells bring about.)
Series [2] deals with T1, SARS-CoV-2 M^pro (Severe acute respiratory syndrome coronavirus 2, UniProt P0DTD1). In words: biochemical. In kind it is binding. As to conditions: SPR, Biacore T200, CM5 chip, kinetics analysis. In general terms: In SPR one partner is held on a chip, and binding of the other changes the refractive index at the surface.
For series [3], the target named is T2, SARS-CoV-2 PL^pro (Severe acute respiratory syndrome coronavirus 2, UniProt P0DTD1). In words: FRET enzymatic inhibition assay, PL^pro. It is filed as biochemical.
Another series is described as follows: in vitro. The note with it: African green monkey.
Series [4] concerns the target T2, SARS-CoV-2 PL^pro. Nature of the series: SPR assay, PL^pro. It is filed as binding. The note with it: Biacore T200, CM5 chip, kinetics analysis.
The target of series [5] is T1, SARS-CoV-2 M^pro. Nature of the series: biochemical. As to conditions: FRET.
[6] abbreviates: Severe acute respiratory syndrome coronavirus 2, Vero C1008, MOI = 0.01, 48 h.

Read-outs that look alike come from different tables or passages of the source.

On to `O=C(OC[C@H]1O[C@@H](OC(=O)c2cc(O)c(O)c(O)c2)[C@H](OC(=O)c2cc(O)c(O)c(O)c2)[C@@H](OC(=O)c2cc(O)c(O)c(O)c2)[C@@H]1OC(=O)c1cc(O)c(O)c(O)c1)c1cc(O)c(O)c(O)c1` [PGG, 1,2,3,4,6-penta-O-galloyl-β-D-glucose], for which the EC50 (in general, the concentration that produces a half-maximal response) with SARS-CoV-2 wild-type (setting [6]) amounted to 8.22 µM. In series [1], the CC50 was greater than 100 µM.

As for `Cn1cnc(Cn2c(=O)[nH]/c(=N\c3cc4cn(C)nc4cc3Cl)n(Cc3cc(F)c(F)cc3F)c2=O)n1` [S-217622, reference compound], the concentration giving a half-maximal response (EC50) in the series on SARS-CoV-2 wild-type (MOI = 0.01, 48 h) came to 0.05 µM.

As to `O=C(OC[C@H]1O[C@@H](OC(=O)c2cc(O)c(O)c(O)c2)[C@H](OC(=O)c2cc(O)c(O)c(O)c2)[C@@H](OC(=O)c2cc(O)c(O)c(O)c2)[C@@H]1O)c1cc(O)c(O)c(O)c1` [TGG, 1,2,3,6-tetra-O-galloyl-β-D-glucose], the EC50 in the series on SARS-CoV-2 wild-type (setting [6]) was found to be 13 µM. Besides, the Kd (usually the free concentration of one partner at which half of the binding sites on the other are occupied at equilibrium, for simple one-to-one binding) at SARS-CoV-2 M^pro [2] was 0.768 µM; on SARS-CoV-2 PL^pro [4], 0.776 µM. The IC50 (usually the point on the concentration scale where inhibition reaches its midpoint) at SARS-CoV-2 PL^pro [3] (1.0 μM PL^pro, 10 μM substrate, mean ± SD, n = 3, read-out: IC50 against PL^pro) is 27.4 ± 2.43 µM; at SARS-CoV-2 M^pro [5] (0.2 μM M^pro, 20 μM substrate, mean ± SD, n = 3, read-out: IC50 against M^pro), 1.33 ± 0.47 µM. Besides, the inhibition (commonly the percentage by which the read-out fell short of the control) at 40 µM on SARS-CoV-2 PL^pro [3] (compound 40 μM, read-out: inhibition effect on PL^pro) is greater than 60%; at SARS-CoV-2 M^pro [5] (compound 40 μM, read-out: inhibition effect on M^pro), greater than 60%. In addition, in “in vitro”, the CC50 was greater than 100 µM.
